From the kinase profiling compilation of Christmann-Franck et al. (2016)

Experiments:
Assay in all cases: radiometric filter-binding kinase assay
[1] = tested on: AKT1 (human), P31749 [S473D]
MKNK2 (human) = MKNK2 (human) (UniProt Q9HBH9)
PIM1 (human) = PIM1 (human) (UniProt P11309)
DAPK1 (human) = DAPK1 (human) (UniProt P53355)
PIM2 (human) = PIM2 (human) (UniProt Q9P1W9)
MAPK11 (human) = MAPK11 (human) (UniProt Q15759)
BRSK2 (human) = BRSK2 (human) (UniProt Q8IWQ3)
DYRK3 (human) = DYRK3 (human) (UniProt O43781)
CLK2 (human) = CLK2 (human) (UniProt P49760)
IKBKB (human) = IKBKB (human) (UniProt O14920)
MAPKAPK5 (human) = MAPKAPK5 (human) (UniProt Q8IW41)
MAP3K7 TAB1 (human) = MAP3K7 TAB1 (human) (UniProt Q15750+O43318)
RPS6KA3 KD1 KD2 (human) = RPS6KA3 KD1 KD2 (human) (UniProt P51812); conditions: compound 1000.0 µM
[2] = tested on: RPS6KB1 (human), P23443 [T412E]
MAPKAPK3 (human) = MAPKAPK3 (human) (UniProt Q16644)
CSNK2A1 (human) = CSNK2A1 (human) (UniProt P68400)
TBK1 (human) = TBK1 (human) (UniProt Q9UHD2)
IRAK4 (human) = IRAK4 (human) (UniProt Q9NWZ3)

MAP3K7 TAB1 (human), sequence (O43318 whole entry, looked up): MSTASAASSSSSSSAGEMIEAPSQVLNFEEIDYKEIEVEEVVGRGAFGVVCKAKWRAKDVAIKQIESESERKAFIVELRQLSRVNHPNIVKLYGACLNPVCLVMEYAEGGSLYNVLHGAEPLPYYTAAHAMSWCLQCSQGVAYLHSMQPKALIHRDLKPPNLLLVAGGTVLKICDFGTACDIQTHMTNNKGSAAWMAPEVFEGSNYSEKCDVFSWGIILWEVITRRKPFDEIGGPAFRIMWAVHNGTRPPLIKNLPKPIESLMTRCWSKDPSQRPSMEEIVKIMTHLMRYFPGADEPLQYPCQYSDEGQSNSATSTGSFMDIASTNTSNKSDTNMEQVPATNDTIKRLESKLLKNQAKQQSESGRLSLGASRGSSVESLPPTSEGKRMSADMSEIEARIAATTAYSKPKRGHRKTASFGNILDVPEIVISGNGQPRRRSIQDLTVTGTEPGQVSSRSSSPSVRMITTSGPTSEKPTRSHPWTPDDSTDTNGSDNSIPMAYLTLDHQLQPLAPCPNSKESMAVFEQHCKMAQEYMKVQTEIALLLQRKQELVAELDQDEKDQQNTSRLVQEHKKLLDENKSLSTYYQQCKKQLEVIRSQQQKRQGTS
MAP3K7 TAB1 (human), sequence (Q15750 whole entry, looked up): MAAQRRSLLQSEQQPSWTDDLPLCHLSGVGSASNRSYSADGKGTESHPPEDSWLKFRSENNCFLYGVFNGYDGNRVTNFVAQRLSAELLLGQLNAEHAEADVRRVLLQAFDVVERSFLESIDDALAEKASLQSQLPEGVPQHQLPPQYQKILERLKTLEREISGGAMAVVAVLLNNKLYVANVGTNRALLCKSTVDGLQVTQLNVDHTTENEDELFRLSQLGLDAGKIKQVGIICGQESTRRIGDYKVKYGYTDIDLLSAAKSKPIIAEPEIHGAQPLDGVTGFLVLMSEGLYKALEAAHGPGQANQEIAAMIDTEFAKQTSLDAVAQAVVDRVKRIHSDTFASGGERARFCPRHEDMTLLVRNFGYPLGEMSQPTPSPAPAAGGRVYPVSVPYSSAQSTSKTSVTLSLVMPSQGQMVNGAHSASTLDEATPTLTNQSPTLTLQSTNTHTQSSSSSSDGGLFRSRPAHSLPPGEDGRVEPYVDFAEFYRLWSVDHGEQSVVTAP
RPS6KB1 (human), P23443 [T412E], sequence (P23443 whole entry T412E, looked up): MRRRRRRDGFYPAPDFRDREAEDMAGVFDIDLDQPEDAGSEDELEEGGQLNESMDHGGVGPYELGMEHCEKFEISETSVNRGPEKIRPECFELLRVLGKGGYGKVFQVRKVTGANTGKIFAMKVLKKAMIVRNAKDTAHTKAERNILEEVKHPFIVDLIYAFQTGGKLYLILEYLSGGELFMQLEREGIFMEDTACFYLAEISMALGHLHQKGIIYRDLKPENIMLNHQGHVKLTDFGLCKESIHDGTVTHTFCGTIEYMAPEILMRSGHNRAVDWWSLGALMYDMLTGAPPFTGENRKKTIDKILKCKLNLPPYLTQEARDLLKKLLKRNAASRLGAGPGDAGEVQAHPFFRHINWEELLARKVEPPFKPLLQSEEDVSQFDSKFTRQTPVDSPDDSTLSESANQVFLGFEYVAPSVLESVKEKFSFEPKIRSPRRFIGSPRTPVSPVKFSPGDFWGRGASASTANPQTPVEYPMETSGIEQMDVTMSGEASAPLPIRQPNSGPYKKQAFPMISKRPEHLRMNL
DAPK1 (human), sequence (P53355 whole entry, looked up): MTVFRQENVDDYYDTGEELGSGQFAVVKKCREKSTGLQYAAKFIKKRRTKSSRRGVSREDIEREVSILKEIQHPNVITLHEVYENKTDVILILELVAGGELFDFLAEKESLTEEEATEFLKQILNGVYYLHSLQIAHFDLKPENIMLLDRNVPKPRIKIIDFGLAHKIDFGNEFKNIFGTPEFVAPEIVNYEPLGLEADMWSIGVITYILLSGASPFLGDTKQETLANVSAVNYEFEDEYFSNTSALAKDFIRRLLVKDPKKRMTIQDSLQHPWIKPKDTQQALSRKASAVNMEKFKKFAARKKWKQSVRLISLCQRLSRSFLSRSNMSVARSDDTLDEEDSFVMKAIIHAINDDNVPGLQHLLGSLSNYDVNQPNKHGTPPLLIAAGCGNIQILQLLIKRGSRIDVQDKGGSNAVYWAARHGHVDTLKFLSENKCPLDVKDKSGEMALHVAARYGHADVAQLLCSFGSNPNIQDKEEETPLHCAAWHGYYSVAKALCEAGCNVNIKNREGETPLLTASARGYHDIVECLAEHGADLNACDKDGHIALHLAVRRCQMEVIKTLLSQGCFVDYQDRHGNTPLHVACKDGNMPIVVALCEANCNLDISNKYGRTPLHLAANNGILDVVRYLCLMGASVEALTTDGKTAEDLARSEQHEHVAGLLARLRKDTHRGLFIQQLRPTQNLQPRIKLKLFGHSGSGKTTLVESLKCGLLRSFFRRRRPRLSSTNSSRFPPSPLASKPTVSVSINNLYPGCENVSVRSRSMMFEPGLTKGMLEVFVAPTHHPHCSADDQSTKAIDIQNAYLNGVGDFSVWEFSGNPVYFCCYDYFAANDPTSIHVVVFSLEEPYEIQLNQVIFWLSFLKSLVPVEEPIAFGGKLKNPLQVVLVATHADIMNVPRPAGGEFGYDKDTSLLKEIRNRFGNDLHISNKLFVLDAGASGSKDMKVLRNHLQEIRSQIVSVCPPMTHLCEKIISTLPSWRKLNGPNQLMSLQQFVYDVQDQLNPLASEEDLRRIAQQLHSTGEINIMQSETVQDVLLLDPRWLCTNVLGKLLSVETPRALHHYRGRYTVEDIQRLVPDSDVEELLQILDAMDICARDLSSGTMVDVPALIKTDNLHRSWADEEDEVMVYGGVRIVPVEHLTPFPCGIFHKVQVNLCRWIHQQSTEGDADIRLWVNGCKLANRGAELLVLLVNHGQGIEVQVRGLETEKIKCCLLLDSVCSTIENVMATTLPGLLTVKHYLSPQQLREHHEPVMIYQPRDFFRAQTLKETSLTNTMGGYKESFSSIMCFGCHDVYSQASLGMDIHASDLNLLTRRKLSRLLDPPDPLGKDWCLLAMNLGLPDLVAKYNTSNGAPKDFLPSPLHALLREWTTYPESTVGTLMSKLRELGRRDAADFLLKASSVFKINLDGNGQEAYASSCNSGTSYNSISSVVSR
MKNK2 (human), sequence (Q9HBH9 whole entry, looked up): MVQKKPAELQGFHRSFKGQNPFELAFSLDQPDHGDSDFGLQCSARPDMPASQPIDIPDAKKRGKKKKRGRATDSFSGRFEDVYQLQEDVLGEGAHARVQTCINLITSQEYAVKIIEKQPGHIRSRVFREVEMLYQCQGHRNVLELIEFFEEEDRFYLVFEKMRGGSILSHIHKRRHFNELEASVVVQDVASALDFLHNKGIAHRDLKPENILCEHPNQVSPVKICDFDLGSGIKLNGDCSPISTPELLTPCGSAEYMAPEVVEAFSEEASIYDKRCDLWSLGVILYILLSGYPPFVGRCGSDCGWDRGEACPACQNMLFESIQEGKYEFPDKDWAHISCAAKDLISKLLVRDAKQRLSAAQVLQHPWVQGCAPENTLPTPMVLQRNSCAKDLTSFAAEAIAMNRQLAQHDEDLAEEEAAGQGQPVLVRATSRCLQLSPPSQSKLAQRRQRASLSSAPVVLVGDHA
PIM1 (human), sequence (P11309 whole entry, looked up): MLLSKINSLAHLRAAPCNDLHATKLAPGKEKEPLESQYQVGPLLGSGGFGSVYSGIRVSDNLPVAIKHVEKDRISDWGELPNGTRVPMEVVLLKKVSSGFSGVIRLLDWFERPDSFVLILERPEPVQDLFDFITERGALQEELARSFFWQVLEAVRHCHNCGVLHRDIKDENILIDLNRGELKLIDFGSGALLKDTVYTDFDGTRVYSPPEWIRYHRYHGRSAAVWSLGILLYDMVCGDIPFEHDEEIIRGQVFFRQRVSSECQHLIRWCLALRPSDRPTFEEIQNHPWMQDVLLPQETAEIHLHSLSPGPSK
IKBKB (human), sequence (O14920 whole entry, looked up): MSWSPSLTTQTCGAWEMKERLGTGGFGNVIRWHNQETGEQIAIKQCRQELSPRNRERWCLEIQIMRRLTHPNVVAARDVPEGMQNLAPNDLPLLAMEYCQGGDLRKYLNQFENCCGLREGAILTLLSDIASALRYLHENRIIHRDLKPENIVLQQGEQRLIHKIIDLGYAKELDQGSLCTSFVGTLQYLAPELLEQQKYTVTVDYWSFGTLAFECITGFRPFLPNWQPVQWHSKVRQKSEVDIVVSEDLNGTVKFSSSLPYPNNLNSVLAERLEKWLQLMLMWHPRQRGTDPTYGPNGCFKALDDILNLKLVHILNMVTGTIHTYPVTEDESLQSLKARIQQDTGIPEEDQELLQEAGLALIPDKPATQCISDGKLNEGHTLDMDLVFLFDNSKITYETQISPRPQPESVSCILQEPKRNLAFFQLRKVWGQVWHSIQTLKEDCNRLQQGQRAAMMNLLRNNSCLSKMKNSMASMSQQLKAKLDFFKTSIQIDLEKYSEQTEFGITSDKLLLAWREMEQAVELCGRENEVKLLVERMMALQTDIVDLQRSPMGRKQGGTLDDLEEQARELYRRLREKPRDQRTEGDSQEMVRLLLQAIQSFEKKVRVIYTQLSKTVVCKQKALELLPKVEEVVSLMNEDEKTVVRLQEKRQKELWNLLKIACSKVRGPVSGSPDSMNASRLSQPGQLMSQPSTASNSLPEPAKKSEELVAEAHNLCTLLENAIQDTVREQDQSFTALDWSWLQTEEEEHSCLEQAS
CSNK2A1 (human), sequence (P68400 whole entry, looked up): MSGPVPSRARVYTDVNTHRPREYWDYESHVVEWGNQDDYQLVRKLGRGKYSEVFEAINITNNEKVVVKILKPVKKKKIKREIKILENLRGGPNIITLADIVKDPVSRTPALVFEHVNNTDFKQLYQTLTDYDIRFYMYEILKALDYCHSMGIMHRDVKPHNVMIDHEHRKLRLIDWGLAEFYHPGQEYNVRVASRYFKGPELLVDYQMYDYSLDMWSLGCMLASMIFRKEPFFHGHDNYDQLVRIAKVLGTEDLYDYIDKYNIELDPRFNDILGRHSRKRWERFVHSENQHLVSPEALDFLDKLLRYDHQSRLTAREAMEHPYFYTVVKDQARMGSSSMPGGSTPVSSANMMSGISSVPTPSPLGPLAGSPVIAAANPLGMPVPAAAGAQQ

## COC(=O)/C=C/C(=O)OC
[1]; compound 10.0 µM
  residual activity: 93%
[1]; compound 100.0 µM
  residual activity: 94%
[1]; compound 1000.0 µM
  residual activity: 103%
MKNK2 (human); compound 10.0 µM
  residual activity: 101%
MKNK2 (human); compound 100.0 µM
  residual activity: 107%
MKNK2 (human); compound 1000.0 µM
  residual activity: 110%
PIM1 (human); compound 10.0 µM
  residual activity: 99%
PIM1 (human); compound 100.0 µM
  residual activity: 107%
PIM1 (human); compound 1000.0 µM
  residual activity: 101%
DAPK1 (human); compound 10.0 µM
  residual activity: 99%
DAPK1 (human); compound 100.0 µM
  residual activity: 102%
DAPK1 (human); compound 1000.0 µM
  residual activity: 104%
PIM2 (human); compound 10.0 µM
  residual activity: 117%
PIM2 (human); compound 100.0 µM
  residual activity: 109%
PIM2 (human); compound 1000.0 µM
  residual activity: 116%
MAPK11 (human); compound 10.0 µM
  residual activity: 111%
MAPK11 (human); compound 1000.0 µM
  residual activity: 104%
BRSK2 (human); compound 10.0 µM
  residual activity: 91%
BRSK2 (human); compound 100.0 µM
  residual activity: 99%
BRSK2 (human); compound 1000.0 µM
  residual activity: 108%
DYRK3 (human); compound 10.0 µM
  residual activity: 105%
DYRK3 (human); compound 1000.0 µM
  residual activity: 106%
CLK2 (human); compound 10.0 µM
  residual activity: 92%
CLK2 (human); compound 100.0 µM
  residual activity: 100%
CLK2 (human); compound 1000.0 µM
  residual activity: 101%
IKBKB (human); compound 10.0 µM
  residual activity: 84%
IKBKB (human); compound 100.0 µM
  residual activity: 91%
IKBKB (human); compound 1000.0 µM
  residual activity: 85%
MAPKAPK5 (human); compound 10.0 µM
  residual activity: 96%
MAPKAPK5 (human); compound 100.0 µM
  residual activity: 92%
MAPKAPK5 (human); compound 1000.0 µM
  residual activity: 94%
MAP3K7 TAB1 (human); compound 10.0 µM
  residual activity: 105%
MAP3K7 TAB1 (human); compound 100.0 µM
  residual activity: 115%
MAP3K7 TAB1 (human); compound 1000.0 µM
  residual activity: 103%
RPS6KA3 KD1 KD2 (human)
  residual activity: 117%
[2]; compound 10.0 µM
  residual activity: 99%
[2]; compound 100.0 µM
  residual activity: 101%
[2]; compound 1000.0 µM
  residual activity: 115%
MAPKAPK3 (human); compound 10.0 µM
  residual activity: 87%
MAPKAPK3 (human); compound 100.0 µM
  residual activity: 97%
CSNK2A1 (human); compound 10.0 µM
  residual activity: 98%
CSNK2A1 (human); compound 100.0 µM
  residual activity: 95%
CSNK2A1 (human); compound 1000.0 µM
  residual activity: 91%
TBK1 (human); compound 10.0 µM
  residual activity: 89%
TBK1 (human); compound 100.0 µM
  residual activity: 100%
IRAK4 (human); compound 10.0 µM
  residual activity: 88%
IRAK4 (human); compound 100.0 µM
  residual activity: 104%
